Values quoted from earlier work in US20030198684A1 (priority 2002, published 2003).
Like-named read-outs stand apart in the source and are kept apart here.

What was measured:
[1] = supplementation
[2] = in vivo
[3] = supplementation; remark: listed apart in the source
young female rats = conditions: constant infusion
aromatase = molecular target: T1, aromatase (Homo sapiens, UniProt P11511); conditions: compared with chrysin, AG and ANG
T1 sequence (P11511 1-503): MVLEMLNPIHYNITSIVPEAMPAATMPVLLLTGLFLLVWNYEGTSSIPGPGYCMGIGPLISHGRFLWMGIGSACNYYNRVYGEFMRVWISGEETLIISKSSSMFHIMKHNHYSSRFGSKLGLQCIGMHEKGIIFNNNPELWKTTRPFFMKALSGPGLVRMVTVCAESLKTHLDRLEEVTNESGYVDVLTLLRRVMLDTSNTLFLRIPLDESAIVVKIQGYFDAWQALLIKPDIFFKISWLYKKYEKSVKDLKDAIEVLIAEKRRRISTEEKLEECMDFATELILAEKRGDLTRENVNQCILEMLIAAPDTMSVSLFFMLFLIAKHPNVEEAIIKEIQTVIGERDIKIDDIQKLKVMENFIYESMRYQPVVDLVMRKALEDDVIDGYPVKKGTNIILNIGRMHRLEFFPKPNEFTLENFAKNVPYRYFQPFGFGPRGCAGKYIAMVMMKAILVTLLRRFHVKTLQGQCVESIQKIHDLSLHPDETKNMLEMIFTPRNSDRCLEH

[4] = for waking erection: Asian hypogonadal men; for sexual interest and activity, spontaneous erection: Caucasian hypogonadal men
[5] = tested on: prostate and seminal vesicle weights
[6] = 300 mg/wk for six weeks; TE: shoulders; ND: shoulders and chest
[7] = HIV-infected men, pharmacological doses
[8] = body builders
[9] = in vivo; remark: listed apart in the source
[10] = patients on dialysis, compared with placebo

C[C@]12CC[C@H]3[C@@H](CCC4=C[C@@H](O)CC[C@@]43C)[C@@H]1CC[C@@H]2O [4-androstenediol]
urine testosterone concentration relative to 4androstenedione [1]: 10 fold
human serum testosterone levels [2]: produce elevations in human serum testosterone levels

C[C@]12CCC(=O)C=C1CC[C@@H]1[C@@H]2CC[C@]2(C)C(=O)CC[C@@H]12 [4-androstenedione]
serum testosterone [3]: produced elevations in serum testosterone

C[C@]12CC[C@H]3[C@@H](CC=C4C[C@@H](O)CC[C@@]43C)[C@@H]1CC[C@@H]2O [5-androstenediol]
lipid deposition or heat production (young female rats): did not have a significant effect
proportion of protein in the body composition (young female rats): increased

COc1ccc(-c2coc3cc(O)cc(O)c3c2=O)cc1 [Biochanin A, 5,7-dihydroxy-4′-methoxyisoflavone]
aromatase inhibition (in words) (aromatase): inhibited aromatase, but to a lesser degree

C[C@]12CC[C@H](O)CC1=CC[C@@H]1[C@@H]2CC[C@]2(C)C(=O)CC[C@@H]12 [DHEA, dehydro-epiandrosterone]
plasma testosterone (50 mg dose of DHEA): restored plasma testosterone to levels similar to those observed in young women
delta 5-androstenediol (50 mg or 200 mg DHEA): small increase
plasma delta 4-androstenedione increase (50 mg or 200 mg DHEA): significant and dose dependent
plasma estrogens, particularly estradiol (50 mg or 200 mg DHEA): significant and dose dependent increase
plasma testosterone (200 mg dose of DHEA): important increase of plasma testosterone, slightly below the levels observed in normal men
increase of plasma dihydrotestosterone levels (both doses of DHEA): small at both doses

C[C@@H]1CC2=CC(=O)CC[C@@H]2[C@H]2CC[C@]3(C)[C@@H](O)CC[C@H]3[C@@H]21 [MENT, 7α-methyl-19-nor-testosterone]
waking erection [4]: increased waking erection
sexual interest and activity, spontaneous erection [4]: significant increases
androgenic potency relative to testosterone [5]: four- to five-times more androgenic than testosterone
anabolic potency relative to testosterone (levator ani muscles): ten-times as potent as testosterone

CCCCCCC(=O)O[C@H]1CC[C@H]2[C@@H]3CCC4=CC(=O)CC[C@]4(C)[C@H]3CC[C@]12C [TE, testosterone enanthate]
body circumferences (of fifteen) [6]: significant increases
waking erection [4]: increased waking erection
sexual interest and activity, spontaneous erection [4]: significant increases

CCCCCCCCCC(=O)O[C@H]1CC[C@H]2[C@@H]3CCC4=CC(=O)CC[C@@H]4[C@H]3CC[C@]12C [nandrolone decanoate, 19-nor-testosterone decanoate]
body circumferences (of fifteen) [6]: significant increases
total weight, lean body mass, body cell mass, muscle size, and strength [7]: significant gains

C[C@]12CC[C@H]3[C@@H](CCC4=CC(=O)CC[C@@H]43)[C@@H]1CC[C@@H]2O [nandrolone, 19-nor-testosterone]
decrease in HDL-choresterol and diastolic blood pressure [8]: 25-27%
azoospermia [9]: azoospermia (lack of sperm) associated with nandrolone use
lean body mass [10]: increased significantly
energy expenditure (young female rats): increased energy expenditure

C[C@]12CC[C@H]3[C@@H](CCC4=CC(=O)CC[C@@]43C)[C@@H]1CC[C@@H]2O [testosterone]
lipid deposition or heat production (young female rats): did not have a significant effect
proportion of protein in the body composition (young female rats): increased
